Measurements taken from patent publication US20240360165A1, “INHIBITORS OF CYCLIN DEPENDENT KINASE 7 (CDK7)” (Syros Pharmaceuticals, Inc., priority 2016, published 2024).
Where two headings read alike, the source gives them in different places.

Columns and labels:
[1] = molecular target: CDK7/Cyclin H/MAT1 complex (Homo sapiens, UniProt P50613); test: CDK7 inhibition assay (Caliper/LabChip EZ Reader kinase assay); assay type: biochemical; conditions: Table 1, CDK7/Cyclin H/MAT1 6 nM, ATP 2 mM, 35 min at 27° C.
Procedure, shortened: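 A Perkin Elmer Caliper/LabChip EZ Reader (Waltham, MA) platform served as the basis for this CDK7 kinase inhibition assay. The work was carried out by Biortus Biosciences, located in Jiangyin, Jiangsu Province, P.R. of China. Each CDK studied had its own kinase assay, and compounds were evaluated for their ability to block CDK7 activity.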

[2] = molecular target: CDK9/Cyclin T1 complex (Homo sapiens, UniProt P50750); test: CDK9 inhibition assay (Caliper/LabChip EZ Reader kinase assay); assay type: biochemical; conditions: Table 1, CDK9/Cyclin T1 8 nM, ATP 2 mM, 15 min at 27° C.
Procedure, shortened: (§1)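 Caliper/LabChip EZ Reader mobility-shift assays. CDK9/Cyclin T1 at 8 nM with 2 μM 5-FAM-CDK9tide peptide and 10 mM MgCl2; CDK2/Cyclin E1 at 0.5 nM with 2 μM 5-FAM-CDK7tide and 2 mM MgCl2.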

[3] = molecular target: T1, CDK12 (aa686-1082)/Cyclin K complex (Homo sapiens, UniProt Q9NYV4); test: CDK12 inhibition assay (Caliper/LabChip EZ Reader kinase assay); assay type: biochemical; conditions: Table 1, CDK12 (aa686-1082)/Cyclin K 50 nM, ATP 2 mM, 3 hr at 27° C.
T1 construct: CDK12 (aa686-1082)/Cyclin K complex

[4] = molecular target: CDK2/Cyclin E1 complex (Homo sapiens, UniProt P24941); test: CDK2 inhibition assay (Caliper/LabChip EZ Reader kinase assay); assay type: biochemical; conditions: Table 1, CDK2/Cyclin E1 0.5 nM, ATP 2 mM, 35 min at 27° C.
Procedure, shortened: as §1

[5] = system: A673 cells; test: Inhibition of proliferation of A673 cells (CyQUANT, 72 hour); assay type: cell-based, human; conditions: A673 cells, 72 hour, CyQUANT, read-out: Inhibition of Proliferation of A673 Cells (calculated IC50)
Procedure, shortened: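 Human Ewing's sarcoma A673 cells in DMEM with 10% FBS and 1 mM sodium pyruvate, 37° C, 5% CO2, treated 72 h with compound from 4 μM to […] (0.5 log dilutions). Antiproliferative effect read by CyQUANT assay.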

[6] = system: HCC70 cells; test: Inhibition of proliferation of HCC70 cells (CyQUANT Direct Cell Proliferation Assay, 72 hour); assay type: cell-based, human
Procedure, shortened: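 Human triple-negative breast cancer HCC70 cells cultured at 37° C, 5% CO2, with compound for 72 hour. Anti-proliferative effect read by CyQUANT Direct Cell Proliferation Assay. Dinaciclib, a CDK inhibitor analog and triptolide served as positive controls.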

[7] = Homo sapiens, HCC70, 72 h, read-out: Inhibition of Proliferation of HCC70 Cells (calculated IC50)

T1 sequence (Q9NYV4 686-1082, species assumed): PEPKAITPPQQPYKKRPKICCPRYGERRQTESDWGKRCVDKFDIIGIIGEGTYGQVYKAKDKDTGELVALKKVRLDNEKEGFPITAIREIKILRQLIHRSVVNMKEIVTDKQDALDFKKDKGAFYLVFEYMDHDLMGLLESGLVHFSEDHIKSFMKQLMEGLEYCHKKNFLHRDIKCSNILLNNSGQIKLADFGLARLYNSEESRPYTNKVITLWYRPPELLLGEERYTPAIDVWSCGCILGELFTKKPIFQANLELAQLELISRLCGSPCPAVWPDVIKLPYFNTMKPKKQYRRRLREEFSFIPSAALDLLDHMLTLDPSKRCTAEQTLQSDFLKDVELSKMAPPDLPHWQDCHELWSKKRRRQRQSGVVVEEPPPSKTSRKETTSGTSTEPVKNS
T1 sequence (O75909 whole entry partner, species assumed, the tested form may be a part): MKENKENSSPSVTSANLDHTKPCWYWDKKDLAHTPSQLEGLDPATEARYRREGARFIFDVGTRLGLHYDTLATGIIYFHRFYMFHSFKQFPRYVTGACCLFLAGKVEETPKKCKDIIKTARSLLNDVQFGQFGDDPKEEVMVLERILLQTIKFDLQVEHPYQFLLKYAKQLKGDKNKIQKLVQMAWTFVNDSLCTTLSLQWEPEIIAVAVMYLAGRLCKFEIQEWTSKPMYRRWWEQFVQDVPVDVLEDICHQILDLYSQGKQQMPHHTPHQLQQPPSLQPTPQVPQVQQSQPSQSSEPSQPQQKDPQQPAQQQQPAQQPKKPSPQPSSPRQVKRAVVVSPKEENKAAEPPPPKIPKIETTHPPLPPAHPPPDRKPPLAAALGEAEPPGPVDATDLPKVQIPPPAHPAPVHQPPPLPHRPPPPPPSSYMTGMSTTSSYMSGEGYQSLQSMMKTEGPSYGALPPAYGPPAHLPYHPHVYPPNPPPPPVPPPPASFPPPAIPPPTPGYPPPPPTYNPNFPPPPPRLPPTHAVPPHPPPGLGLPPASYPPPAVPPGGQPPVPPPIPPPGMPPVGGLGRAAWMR
CDK7/Cyclin H/MAT1 complex, sequence (P50613 whole entry, species assumed): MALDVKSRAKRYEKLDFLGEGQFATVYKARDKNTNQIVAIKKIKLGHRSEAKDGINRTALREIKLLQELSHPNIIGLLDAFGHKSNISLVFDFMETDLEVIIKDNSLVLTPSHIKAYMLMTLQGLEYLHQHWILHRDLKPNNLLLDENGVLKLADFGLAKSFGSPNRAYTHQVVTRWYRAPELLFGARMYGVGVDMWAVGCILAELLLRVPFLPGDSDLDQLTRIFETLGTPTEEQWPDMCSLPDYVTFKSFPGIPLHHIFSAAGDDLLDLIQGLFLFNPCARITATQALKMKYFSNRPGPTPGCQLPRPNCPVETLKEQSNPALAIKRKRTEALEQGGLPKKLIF
CDK7/Cyclin H/MAT1 complex, sequence (P51946 whole entry partner, species assumed): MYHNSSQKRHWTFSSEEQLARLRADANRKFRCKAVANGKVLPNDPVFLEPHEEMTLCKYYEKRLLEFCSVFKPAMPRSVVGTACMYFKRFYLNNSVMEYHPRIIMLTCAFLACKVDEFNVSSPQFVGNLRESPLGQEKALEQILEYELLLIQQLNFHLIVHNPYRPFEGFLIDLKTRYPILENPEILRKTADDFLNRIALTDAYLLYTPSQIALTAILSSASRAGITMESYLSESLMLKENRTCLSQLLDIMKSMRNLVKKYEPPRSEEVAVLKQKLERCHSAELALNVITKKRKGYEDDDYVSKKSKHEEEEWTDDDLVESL
CDK7/Cyclin H/MAT1 complex, sequence (P51948 whole entry partner, species assumed): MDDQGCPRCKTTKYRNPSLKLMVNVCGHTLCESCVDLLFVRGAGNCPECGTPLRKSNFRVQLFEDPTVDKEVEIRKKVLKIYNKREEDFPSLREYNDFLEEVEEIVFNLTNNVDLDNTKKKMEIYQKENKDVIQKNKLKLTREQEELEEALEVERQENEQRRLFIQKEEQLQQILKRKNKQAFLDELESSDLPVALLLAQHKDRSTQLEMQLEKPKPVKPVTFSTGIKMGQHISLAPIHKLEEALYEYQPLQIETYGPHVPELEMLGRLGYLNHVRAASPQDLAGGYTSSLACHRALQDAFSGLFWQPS
CDK9/Cyclin T1 complex, sequence (P50750 whole entry, species assumed): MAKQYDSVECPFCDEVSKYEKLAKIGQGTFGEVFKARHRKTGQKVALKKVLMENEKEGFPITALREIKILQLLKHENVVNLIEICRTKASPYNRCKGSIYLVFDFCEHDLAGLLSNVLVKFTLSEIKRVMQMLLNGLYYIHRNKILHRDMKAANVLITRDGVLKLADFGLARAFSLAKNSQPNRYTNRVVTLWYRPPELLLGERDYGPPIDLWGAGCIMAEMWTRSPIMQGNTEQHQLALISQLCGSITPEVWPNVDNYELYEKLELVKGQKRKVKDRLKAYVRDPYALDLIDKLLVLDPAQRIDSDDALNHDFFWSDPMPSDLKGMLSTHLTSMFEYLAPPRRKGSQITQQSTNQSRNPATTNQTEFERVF
CDK9/Cyclin T1 complex, sequence (O60563 whole entry partner, species assumed): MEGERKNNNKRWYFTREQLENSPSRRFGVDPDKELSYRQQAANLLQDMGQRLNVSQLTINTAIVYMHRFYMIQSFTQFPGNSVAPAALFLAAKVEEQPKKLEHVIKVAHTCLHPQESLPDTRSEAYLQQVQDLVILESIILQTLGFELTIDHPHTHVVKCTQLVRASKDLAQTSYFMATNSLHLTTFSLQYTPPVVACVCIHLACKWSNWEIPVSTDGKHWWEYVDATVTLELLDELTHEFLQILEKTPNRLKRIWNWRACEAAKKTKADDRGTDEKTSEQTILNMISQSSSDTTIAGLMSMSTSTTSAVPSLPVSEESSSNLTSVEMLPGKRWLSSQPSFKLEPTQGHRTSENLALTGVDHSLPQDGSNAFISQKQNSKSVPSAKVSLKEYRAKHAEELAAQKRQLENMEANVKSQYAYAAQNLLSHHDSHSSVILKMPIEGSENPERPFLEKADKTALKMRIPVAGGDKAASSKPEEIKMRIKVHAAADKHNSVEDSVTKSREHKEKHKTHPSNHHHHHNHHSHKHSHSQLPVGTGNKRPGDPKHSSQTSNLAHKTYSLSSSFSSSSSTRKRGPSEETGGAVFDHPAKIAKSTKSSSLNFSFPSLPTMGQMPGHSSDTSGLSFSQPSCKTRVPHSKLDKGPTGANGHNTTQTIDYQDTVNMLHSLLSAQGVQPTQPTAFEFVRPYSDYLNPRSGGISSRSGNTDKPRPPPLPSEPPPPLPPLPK

Structure (SMILES) | IC50 [1] | IC50 [2] | IC50 [3] | IC50 [4] | IC50 ([5]; Homo sapiens, A673, 72 h) | IC50 [6, 7] | IC50 [5] | also measured
N#C[C@@H]1CCN(C(=O)c2ccc3c(-c4nc(N[C@H]5CCCNC5)ncc4C(F)(F)F)c[nH]c3c2)C1 [Compound 292, (3R)-1-[3-[2-[[(3S)-3-piperidyl]amino]-5-(trifluoromethyl)pyrimidin-4-yl]-1H-indole-6-carbonyl] pyrrolidine-3-carbonitrile] | < 20 nM | 200 to 5000 nM | 200 to 5000 nM | 200 to 5000 nM | 20 to 200 nM | 100 to 1000 nM | – | IC50 ([1]; listed as 107): 20 to 200 nM; IC50 ([2]; listed as 107): 200 to 5000 nM; IC50 ([3]; listed as 107): 20 to 200 nM; IC50 ([4]; listed as 107): 200 to 5000 nM; IC50 ([5]; listed as 107): < 20 nM
O=C(O)c1ccc2c(-c3nc(N[C@H]4CCCNC4)ncc3C(F)(F)F)c[nH]c2c1 [Compound 306, 3-[2-[[(3S)-3-piperidyl]amino]-5-(trifluoromethyl)pyrimidin-4-yl]-1H-indole-6-Carboxylic acid] | 20 to 200 nM | > 5000 nM | 200 to 5000 nM | 200 to 5000 nM | – | 100 to 1000 nM | 20 to 200 nM | IC50 ([1]; listed as 114): 20 to 200 nM; IC50 ([2]; listed as 114): 200 to 5000 nM; IC50 ([3]; listed as 114): 200 to 5000 nM; IC50 ([4]; listed as 114): 200 to 5000 nM
CC1(O)CCN(C(=O)c2ccc3c(-c4nc(N[C@H]5CCCNC5)ncc4C(F)(F)F)c[nH]c3c2)C1 (single isomer, unassigned) [Compound 221] | < 20 nM | > 5000 nM | > 5000 nM | > 5000 nM | 200 to 5000 nM | 100 to 1000 nM | – | –
FC(F)(F)c1cnc(N[C@@H]2CNC[C@H](c3nnc4ccccn34)C2)nc1-c1c[nH]c2ccccc12 [Compound 267] | 20 to 200 nM | 200 to 5000 nM | 200 to 5000 nM | 200 to 5000 nM | – | – | < 20 nM | IC50 ([6]; read-out: Inhibition of Proliferation of HCC70 Cells (calculated IC50)): < 100 nM
CS(=O)(=O)c1c(C#N)ccc2c(-c3nc(N[C@H]4CCCNC4)ncc3Cl)c[nH]c12 [Compound 294, 3-[5-chloro-2-[[(3S)-3-piperidyl]amino]pyrimidin-4-yl]-7-methylsulfonyl-1H-indole-6-carbonitrile] | < 20 nM | 200 to 5000 nM | 200 to 5000 nM | 200 to 5000 nM | – | < 100 nM | 20 to 200 nM | IC50 ([1]; listed as 109): < 20 nM; IC50 ([2]; listed as 109): 200 to 5000 nM; IC50 ([3]; listed as 109): 20 to 200 nM; IC50 ([4]; listed as 109): 200 to 5000 nM; IC50 ([6]; listed as 109, read-out: Inhibition of Proliferation of HCC70 Cells (calculated IC50)): 100 to 1000 nM
Cn1ccc(-c2ccc3c(-c4nc(N[C@H]5CCCNC5)ncc4C(F)(F)F)c[nH]c3c2)n1 [Compound 303, 4-[6-(1-methylpyrazol-3-yl)-1H-indol-3-yl]-N-[(3S)-3-piperidyl]-5-(trifluoromethyl) pyrimidin-2-amine] | < 20 nM | 200 to 5000 nM | 200 to 5000 nM | 200 to 5000 nM | – | 100 to 1000 nM | 200 to 5000 nM | IC50 ([1]; listed as 113): 20 to 200 nM; IC50 ([2]; listed as 113): > 5000 nM; IC50 ([3]; listed as 113): 200 to 5000 nM; IC50 ([4]; listed as 113): > 5000 nM
O=c1[nH]cc(-c2ccc3c(-c4nc(N[C@H]5CCCNC5)ncc4C(F)(F)F)c[nH]c3c2)c(=O)[nH]1 [Compound 333, 5-[3-[2-[[(3S)-3-piperidyl]amino]-5-(trifluoromethyl)pyrimidin-4-yl]-1H-indol-6-yl]-1H-pyrimidine-2,4-dione] | < 20 nM | > 5000 nM | 200 to 5000 nM | > 5000 nM | – | 1000 to 5000 nM | 200 to 5000 nM | IC50 ([1]; listed as 139): 20 to 200 nM; IC50 ([2]; listed as 139): > 5000 nM; IC50 ([3]; listed as 139): > 5000 nM; IC50 ([4]; listed as 139): > 5000 nM
CCN1C[C@@H](Nc2ncc(C(F)(F)F)c(-c3c[nH]c4cc(S(C)(=O)=O)ccc34)n2)CC(C)(C)C1 [Compound 369, N-[(3S)-1-ethyl-5,5-dimethyl-3-piperidyl]-4-(6-methylsulfonyl-1H-indol-3-yl)-5-(trifluoromethyl)pyrimidin-2-amine] | 20 to 200 nM | > 5000 nM | > 5000 nM | > 5000 nM | – | 100 to 1000 nM | 20 to 200 nM | IC50 ([1]; listed as 129): 20 to 200 nM; IC50 ([3]; listed as 129): 200 to 5000 nM
C[C@H]1CCNC[C@H]1Nc1ncc(C(F)(F)F)c(-c2c[nH]c3ccccc23)n1 [Compound 285] | 200 to 5000 nM | > 5000 nM | > 5000 nM | > 5000 nM | < 20 nM | < 100 nM | – | –
O=C(C1CCC(Nc2ncc(C(F)(F)F)c(-c3c[nH]c4ccccc34)n2)CN1)N1CCC(O)C1 (mixture of isomers) [Compound 250] | < 20 nM | > 5000 nM | 200 to 5000 nM | 200 to 5000 nM | – | 1000 to 5000 nM | 200 to 5000 nM | –
CCc1cnc(N[C@H]2CCCNC2)nc1-c1c[nH]c2c(S(C)(=O)=O)c(C#N)ccc12 [Compound 263, 3-[5-ethyl-2-[[(3S)-3-piperidyl]amino]pyrimidin-4-yl]-7-methylsulfonyl-1H-indole-6-carbonitrile] | < 20 nM | > 5000 nM | > 5000 nM | > 5000 nM | 20 to 200 nM | 100 to 1000 nM | – | –
FC(F)n1ccc(-c2ccc3c(-c4nc(N[C@H]5CCCNC5)ncc4C(F)(F)F)c[nH]c3c2)n1 [Compound 289, 4-[6-[1-(difluoromethyl)pyrazol-3-yl]-1H-indol-3-yl]-N-[(3S)-3-piperidyl]-5-(trifluoromethyl) pyrimidin-2-amine] | 20 to 200 nM | 200 to 5000 nM | 200 to 5000 nM | 200 to 5000 nM | 20 to 200 nM | 100 to 1000 nM | – | –
O=C(c1ccc2c(-c3nc(N[C@H]4CCCNC4)ncc3C(F)(F)F)c[nH]c2c1)N1CCCC1 [Compound 278, [3-[2-[[(3S)-3-piperidyl]amino]-5-(trifluoromethyl)pyrimidin-4-yl]-1H-indol-6-yl]-Pyrrolidin-1-yl-methanone] | 20 to 200 nM | > 5000 nM | 200 to 5000 nM | 200 to 5000 nM | 20 to 200 nM | 100 to 1000 nM | – | –
CS(=O)(=O)c1c(C#N)ccc2c(-c3nc(N[C@H]4CCCNC4)ncc3C(F)(F)F)c[nH]c12 [Compound 232, 7-methylsulfonyl-3-[2-[[(3S)-3-piperidyl]amino]-5-(trifluoromethyl)pyrimidin-4-yl]-1H-indole-6-carbonitrile] | < 20 nM | 200 to 5000 nM | 200 to 5000 nM | 200 to 5000 nM | < 20 nM | < 100 nM | – | –
CC1(C)CC[C@H](Nc2ncc(C(F)(F)F)c(-c3c[nH]c4ccccc34)n2)CN1 [Compound 190] | < 20 nM | 200 to 5000 nM | 200 to 5000 nM | 200 to 5000 nM | < 20 nM | 100 to 1000 nM | – | –
